Key:
[1] = target: T1, Probable G-protein coupled receptor 142 (Mus musculus, UniProt Q7TQN9); assay: Agonist activity at mouse GPR142 expressed in CHO cells measured for 3 mins by Fluo-4M dye based FLIPR assay; format: cell-based; details: read-out: IC50 (the source's name)
T1 sequence (Q7TQN9 whole entry): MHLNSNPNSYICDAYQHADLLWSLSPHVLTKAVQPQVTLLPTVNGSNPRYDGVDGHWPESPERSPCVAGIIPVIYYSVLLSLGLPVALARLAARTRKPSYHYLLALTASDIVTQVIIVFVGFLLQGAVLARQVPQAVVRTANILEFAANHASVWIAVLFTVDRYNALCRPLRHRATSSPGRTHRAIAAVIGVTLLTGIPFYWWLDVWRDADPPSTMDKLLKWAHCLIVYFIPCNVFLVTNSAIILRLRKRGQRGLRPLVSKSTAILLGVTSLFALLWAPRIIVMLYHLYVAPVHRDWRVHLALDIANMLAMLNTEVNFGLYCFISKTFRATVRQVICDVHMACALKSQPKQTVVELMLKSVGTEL

[2] = target: T2, Probable G-protein coupled receptor 142 (Homo sapiens, UniProt Q7Z601); assay: Agonist activity at human GPR142 expressed in CHO cells measured for 3 mins by Fluo-4M dye based FLIPR assay; format: cell-based; details: read-out: IC50 (the source's name)
T2 sequence (Q7Z601 whole entry): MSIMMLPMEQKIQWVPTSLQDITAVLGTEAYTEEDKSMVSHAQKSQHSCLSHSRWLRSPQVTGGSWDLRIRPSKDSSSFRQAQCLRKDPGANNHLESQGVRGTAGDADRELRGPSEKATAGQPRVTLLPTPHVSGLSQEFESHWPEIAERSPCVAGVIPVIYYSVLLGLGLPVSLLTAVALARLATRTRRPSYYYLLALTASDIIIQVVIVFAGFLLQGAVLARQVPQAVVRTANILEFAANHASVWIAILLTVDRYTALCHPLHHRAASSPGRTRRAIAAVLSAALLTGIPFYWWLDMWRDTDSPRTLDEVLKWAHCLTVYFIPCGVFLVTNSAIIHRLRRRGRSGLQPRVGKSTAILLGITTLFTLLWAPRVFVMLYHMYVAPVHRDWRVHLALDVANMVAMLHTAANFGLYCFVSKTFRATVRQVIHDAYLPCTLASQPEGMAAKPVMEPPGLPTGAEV

Cytochrome P450 3A4 = Cytochrome P450 3A4 (Homo sapiens, UniProt P08684); assay: Inhibition of human liver microsomes CYP3A4 using testosterone as substrate by MUX-MS/MS analysis; format: ADME, Microsome
Chain of Cytochrome P450 3A4 (P08684 whole entry): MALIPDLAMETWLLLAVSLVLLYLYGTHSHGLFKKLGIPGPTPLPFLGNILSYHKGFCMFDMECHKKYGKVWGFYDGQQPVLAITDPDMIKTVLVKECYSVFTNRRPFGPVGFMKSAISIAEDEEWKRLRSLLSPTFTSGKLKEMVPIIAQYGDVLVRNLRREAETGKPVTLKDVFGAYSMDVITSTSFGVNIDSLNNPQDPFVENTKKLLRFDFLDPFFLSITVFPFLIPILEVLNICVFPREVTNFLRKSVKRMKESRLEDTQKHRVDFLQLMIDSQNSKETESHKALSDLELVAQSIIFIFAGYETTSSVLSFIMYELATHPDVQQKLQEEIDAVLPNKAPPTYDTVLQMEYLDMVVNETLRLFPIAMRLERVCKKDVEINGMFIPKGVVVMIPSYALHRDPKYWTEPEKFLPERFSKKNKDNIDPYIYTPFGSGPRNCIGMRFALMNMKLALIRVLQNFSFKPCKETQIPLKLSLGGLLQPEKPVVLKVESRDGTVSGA

[3] = target: Voltage-gated inwardly rectifying potassium channel KCNH2 (Homo sapiens, UniProt Q12809); assay: Inhibition of human ERG expressed in HEK293 cells assessed as reduction in S35-MK-0499 binding; format: cell-based
Chain of Voltage-gated inwardly rectifying potassium channel KCNH2 (Q12809 whole entry): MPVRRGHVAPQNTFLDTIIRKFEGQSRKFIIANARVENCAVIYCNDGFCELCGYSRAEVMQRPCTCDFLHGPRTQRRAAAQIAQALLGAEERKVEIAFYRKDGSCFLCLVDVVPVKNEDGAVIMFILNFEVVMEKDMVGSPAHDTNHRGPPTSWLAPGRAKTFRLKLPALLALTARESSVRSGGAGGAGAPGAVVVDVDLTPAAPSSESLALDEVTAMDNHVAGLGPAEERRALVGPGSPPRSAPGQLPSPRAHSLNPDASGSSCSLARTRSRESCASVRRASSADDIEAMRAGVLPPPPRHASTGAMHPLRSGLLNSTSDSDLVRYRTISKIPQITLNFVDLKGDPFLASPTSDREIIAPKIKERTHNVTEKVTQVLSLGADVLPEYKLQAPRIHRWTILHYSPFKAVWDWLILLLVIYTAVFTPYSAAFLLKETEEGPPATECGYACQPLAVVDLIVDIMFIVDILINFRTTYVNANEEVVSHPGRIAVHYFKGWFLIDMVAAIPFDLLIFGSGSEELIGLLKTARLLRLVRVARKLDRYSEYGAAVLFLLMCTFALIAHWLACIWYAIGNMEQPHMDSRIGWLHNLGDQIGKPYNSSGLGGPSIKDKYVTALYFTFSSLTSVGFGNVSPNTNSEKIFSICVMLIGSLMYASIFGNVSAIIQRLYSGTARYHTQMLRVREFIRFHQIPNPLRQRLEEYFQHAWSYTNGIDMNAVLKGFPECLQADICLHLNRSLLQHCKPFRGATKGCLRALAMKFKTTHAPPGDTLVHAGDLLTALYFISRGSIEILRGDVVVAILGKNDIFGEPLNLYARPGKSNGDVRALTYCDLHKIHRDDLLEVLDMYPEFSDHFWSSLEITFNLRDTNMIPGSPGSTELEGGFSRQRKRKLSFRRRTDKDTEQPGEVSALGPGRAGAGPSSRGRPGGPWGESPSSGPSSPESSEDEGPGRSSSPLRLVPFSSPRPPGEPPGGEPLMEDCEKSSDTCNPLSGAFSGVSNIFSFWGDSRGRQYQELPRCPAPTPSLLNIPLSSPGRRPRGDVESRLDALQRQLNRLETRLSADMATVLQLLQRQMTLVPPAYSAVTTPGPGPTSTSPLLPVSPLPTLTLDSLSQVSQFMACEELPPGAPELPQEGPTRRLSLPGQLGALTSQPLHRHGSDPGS

Cytochrome P450 2C9 = Cytochrome P450 2C9 (Homo sapiens, UniProt P11712); assay: Inhibition of human liver microsomes CYP2C9 using diclofenac as substrate by MUX-MS/MS analysis; format: ADME, Microsome
Chain of Cytochrome P450 2C9 (P11712 whole entry): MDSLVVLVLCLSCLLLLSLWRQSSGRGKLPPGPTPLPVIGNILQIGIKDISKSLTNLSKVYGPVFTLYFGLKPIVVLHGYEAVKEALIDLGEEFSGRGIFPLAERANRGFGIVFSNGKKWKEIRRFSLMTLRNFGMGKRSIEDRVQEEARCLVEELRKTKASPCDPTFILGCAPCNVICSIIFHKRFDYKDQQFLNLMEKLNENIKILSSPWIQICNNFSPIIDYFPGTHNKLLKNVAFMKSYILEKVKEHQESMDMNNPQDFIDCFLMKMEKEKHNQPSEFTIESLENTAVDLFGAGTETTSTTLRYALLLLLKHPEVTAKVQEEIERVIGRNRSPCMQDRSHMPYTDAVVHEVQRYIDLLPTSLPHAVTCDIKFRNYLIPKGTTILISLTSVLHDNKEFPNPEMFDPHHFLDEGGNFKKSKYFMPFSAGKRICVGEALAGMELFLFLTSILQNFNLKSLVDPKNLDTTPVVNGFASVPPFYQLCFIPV

Cytochrome P450 2D6 = Cytochrome P450 2D6 (Homo sapiens, UniProt P10635); assay: Inhibition of human liver microsomes CYP2D6 using dextromethorphan as substrate by MUX-MS/MS analysis; format: ADME, Microsome
Chain of Cytochrome P450 2D6 (P10635 whole entry): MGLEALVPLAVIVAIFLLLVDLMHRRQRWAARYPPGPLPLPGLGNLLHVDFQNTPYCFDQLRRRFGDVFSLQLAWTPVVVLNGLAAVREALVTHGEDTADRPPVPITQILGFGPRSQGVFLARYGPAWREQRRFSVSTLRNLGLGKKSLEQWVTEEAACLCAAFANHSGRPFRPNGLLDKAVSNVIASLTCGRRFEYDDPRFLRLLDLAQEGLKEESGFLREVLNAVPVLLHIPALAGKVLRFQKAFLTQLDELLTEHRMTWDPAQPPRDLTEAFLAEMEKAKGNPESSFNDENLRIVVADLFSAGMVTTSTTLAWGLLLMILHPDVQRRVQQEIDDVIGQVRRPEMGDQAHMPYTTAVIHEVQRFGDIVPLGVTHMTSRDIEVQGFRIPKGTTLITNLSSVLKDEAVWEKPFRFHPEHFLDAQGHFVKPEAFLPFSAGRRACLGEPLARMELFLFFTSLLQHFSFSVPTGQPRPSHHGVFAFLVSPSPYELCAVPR

[4] = Volume of distribution at steady state in rat at 2 mg/kg, po or 1 mg/kg, iv; format: ADME, organism-based; details: in vivo, read-out: Vdss
[5] = Oral bioavailability in rat at 2 mg/kg; format: ADME, organism-based; details: in vivo
[6] = Half life in rat at 2 mg/kg, po or 1 mg/kg, iv; format: ADME, organism-based; details: in vivo
[7] = Clearance in rat at 2 mg/kg, po or 1 mg/kg, iv; format: ADME, organism-based; details: in vivo
[8] = Protein binding in rat plasma assessed as unbound fraction; format: ADME, cell-free
Mus musculus = assay: Antidiabetic activity in […] mouse assessed as reduction in dextrose-induced blood glucose peak administered po before dextrose stimulation and measured upto 120 mins after dextrose administration by OGTT assay; format: functional, organism-based; details: time min <=120

Row | Compound | EC50 [1] [nM] | EC50 [2] [nM] | IC50 (Cytochrome P450 3A4) [nM] | IC50 (Cytochrome P450 2C9) [nM] | IC50 (Cytochrome P450 2D6) [nM] | IC50 [3] [nM] | other results
1 | FC(F)(F)c1cccc(Nc2nnc3n2CCOc2ccc(-c4ccncc4)cc2-3)c1 | – | 48 | 516 | 531 | 782 | 557 | –
2 | Cc1cc(-c2ccc3c(c2)-c2nnc(Oc4cccc(Cl)c4F)n2CCO3)ccn1 | – | 56 | 8390 | 5260 | 12100 | 2410 | Vd [4]: 1.6 L/kg; bioavailability [5]: 67%; half-life [6]: 2 h; clearance [7]: 8.9 mL/min/kg; fraction unbound [8]: 0.0111; Activity (Mus musculus): Dose-dependent effect
3 | COc1cccc(NC(=O)N2CCOc3ccc(-c4ccncc4C)cc3C2)c1 | 1180 | 394 | – | – | – | – | –
4 | Cc1cc(-c2ccc3c(c2)-c2nnc(Oc4ccccc4OC(F)(F)F)n2CCO3)ccn1 | – | 89 | > 50000 | 26100 | 8650 | 2840 | –
5 | COc1cccc(N(C)C(=O)N2CCOc3ccc(-c4ccncc4)cc3C2)c1 | > 20000 | > 20000 | – | – | – | – | –
6 | COc1cccc(NC(=O)N2CCOc3ccc(-c4ccnc(OC)c4)cc3C2)c1 | 2570 | 2800 | – | – | – | – | –
7 | COc1cccc(NC(=O)N2CCOc3ccc(-c4ccncn4)cc3C2)c1 | – | 1600 | – | – | – | – | –
8 | CCc1cc(-c2ccc3c(c2)-c2nnc(Nc4cccc(C(F)(F)F)c4)n2CCO3)ccn1 | – | 74 | > 50000 | 3540 | 2340 | 334 | Vd [4]: 2.6 L/kg; bioavailability [5]: 97%; half-life [6]: 1.4 h; clearance [7]: 14 mL/min/kg; fraction unbound [8]: 0.0034
9 | Cc1cc(-c2ccc3c(c2)-c2nnc(Nc4cccc(OC(F)(F)F)c4)n2CCO3)ccn1 | – | 45 | > 50000 | 1390 | 1720 | 236 | Vd [4]: 1.9 L/kg; half-life [6]: 2 h; clearance [7]: 11 mL/min/kg; fraction unbound [8]: 0.0949
10 | Cc1cc(-c2ccc3c(c2)-c2nnc(Oc4cccc(Cl)c4)n2CCO3)ccn1 | – | 58 | > 50000 | > 50000 | 7020 | 931 | –
11 | Cc1cc(-c2ccc3c(c2)-c2nnc(Oc4cccc(OC(F)(F)F)c4)n2CCO3)ccn1 | – | 78 | > 50000 | 14300 | 1950 | 693 | –
12 | Cc1cc(-c2ccc3c(c2)-c2nnc(Nc4cccc(C(F)(F)F)c4)n2CCO3)ccn1 | – | 63 | 48300 | 1960 | 326 | 388 | –

Second part, led by results:

Row | EC50 [1] [nM] | EC50 [2] [nM] | IC50 (Cytochrome P450 3A4) [nM] | IC50 (Cytochrome P450 2C9) [nM] | IC50 (Cytochrome P450 2D6) [nM] | Compound | IC50 [3] [nM] | other results
13 | 146 | 1720 | – | – | – | O=C(Nc1cccc(Oc2ccccc2)c1)N1CCOc2ccc(-c3ccncc3)cc2C1 | – | –
14 | 157 | 708 | – | – | – | O=C(Nc1cccc(Cl)c1Cl)N1CCOc2ccc(-c3ccncc3)cc2C1 | – | –
15 | 1050 | 1850 | – | – | – | O=C(Nc1ccc(Cl)c(Cl)c1)N1CCc2ccc(-c3ccncc3)cc2C1 | – | –
16 | > 20000 | > 20000 | – | – | – | COc1ccc(NC(=O)N2CCOc3ccc(-c4ccncc4)cc3C2)cc1 | – | –
17 | 79 | 80 | – | – | – | N#Cc1cccc(NC(=O)N2CCOc3ccc(-c4ccncc4)cc3C2)c1 | – | –
18 | 2570 | > 20000 | – | – | – | CN1CCN(C(=O)Nc2ccc(Cl)c(Cl)c2)Cc2cc(-c3ccncc3)ccc21 | – | –
19 | 92 | 517 | – | – | – | COc1ccccc1NC(=O)N1CCOc2ccc(-c3ccncc3)cc2C1 | – | –
20 | 138 | 140 | – | – | 76000 | O=C(Nc1ccc(Cl)c(Cl)c1)N1CCOc2ccc(-c3ccncc3)cc2C1 | – | IC50 ([3]; hek293): 2030 nM; Vd [4]: 3.4 L/kg; bioavailability [5]: 6%; half-life [6]: 0.71 h; clearance [7]: 88.6 mL/min/kg; fraction unbound [8]: 0.0015
21 | 62 | 343 | – | – | – | O=C(Nc1cccc(-c2ccccc2)c1)N1CCOc2ccc(-c3ccncc3)cc2C1 | – | –
22 | 59 | 163 | – | – | – | O=C(Nc1cccc(Cl)c1F)N1CCOc2ccc(-c3ccncc3)cc2C1 | – | –
23 | 590 | 839 | – | – | – | O=C(Nc1ccc(Cl)c(Cl)c1)N1CCCc2ccc(-c3ccncc3)cc2C1 | – | –
24 | 604 | 13100 | – | – | – | O=C(Nc1ccccc1F)N1CCOc2ccc(-c3ccncc3)cc2C1 | – | –
